In paper PMC11995724, “Antibiotic target discovery by integrated phenotypic and activity-based profiling of electrophilic fragments” (Cell chemical biology, 2025):

Assay: in vitro
Details: human, hek293t cells

Row | SMILES | viability at 48 h, 25 µM
1 | Cc1cc(C)c(C=C(C#N)C(=O)Nc2nccs2)cc1C [8-P21, 2-cyano-N-(1,3-thiazol-2-yl)-3-(2,4,5-trimethylphenyl)prop-2-enamide] | 113%
2 | N#CC(=Cc1cccc(Cl)c1Cl)C(=O)Nc1ccc(F)cc1 [8-P22, 2-cyano-3-(2,3-dichlorophenyl)-N-(4-fluorophenyl)prop-2-enamide] | 92.8%
3 | N#CC(=Cc1cccc(F)c1F)C(N)=O [9-A03, 2-cyano-3-(2,3-difluorophenyl)prop-2-enamide] | 115%
4 | N#CC(=Cc1ccc(OC(F)F)cc1)C(=O)NC1CCCCC1 [9-A04, 2-cyano-N-cyclohexyl-3-[4-(difluoromethoxy)phenyl]prop-2-enamide] | 66.2%
5 | CC(O)=C(C#N)C(=O)Nc1ccc(C(F)(F)F)cc1 [9-A05, 2-cyano-3-hydroxy-N-[4-(trifluoromethyl)phenyl]but-2-enamide] | 90.6%
6 | CCOc1ccccc1NC(=O)C(C#N)=Cc1c(C)[nH]c2ccccc12 [9-A06, 2-cyano-N-(2-ethoxyphenyl)-3-(2-methyl-1H-indol-3-yl)prop-2-enamide] | 100%
7 | Cc1cc(C=C(C#N)C(=O)Nc2ccccc2)c(C)n1CC(C)C [9-A07, 2-cyano-3-[2,5-dimethyl-1-(2-methylpropyl)-1H-pyrrol-3-yl]-N-phenylprop-2-enamide] | 115%
8 | N#CC(=Cc1ccc(-c2ccccc2F)o1)C(=O)Nc1nccs1 [9-A08, 2-cyano-3-[5-(2-fluorophenyl)furan-2-yl]-N-(1,3-thiazol-2-yl)prop-2-enamide] | 110%
9 | CC(C)NC(=O)C(C#N)=Cc1ccccc1Cl [9-A09, 3-(2-chlorophenyl)-2-cyano-N-(propan-2-yl)prop-2-enamide] | 95.9%
10 | COc1ccccc1NC(=O)C(C#N)=Cc1cc(C)c(C)cc1C [9-A10, 2-cyano-N-(2-methoxyphenyl)-3-(2,4,5-trimethylphenyl)prop-2-enamide] | 115%
11 | CC(C)NC(=O)C(C#N)=Cc1c(Cl)nc2ccccn12 [9-A11, 3-{2-chloroimidazo[1,2-a]pyridin-3-yl}-2-cyano-N-(propan-2-yl)prop-2-enamide] | 112%
12 | CC(=O)N(c1ccccc1)c1nc(C=C(C#N)C(=O)NC2CC2)cs1 [9-A12, 2-cyano-N-cyclopropyl-3-[2-(N-phenylacetamido)-1,3-thiazol-4-yl]prop-2-enamide] | 123%
13 | CC(C)NC(=O)C(C#N)=Cc1cccc(Cl)c1 [9-A13, 3-(3-chlorophenyl)-2-cyano-N-(propan-2-yl)prop-2-enamide] | 99.7%
14 | CN(C)c1ccc(C=C(C#N)C(=O)N2CCC2)cc1 [9-A14, 2-(azetidine-1-carbonyl)-3-[4-(dimethylamino)phenyl]prop-2-enenitrile] | 106%
15 | N#CC(=Cc1ccc2c(c1)OCO2)C(=O)NCc1ccco1 [9-A15, 3-(1,3-dioxaindan-5-yl)-2-cyano-N-[(furan-2-yl)methyl]prop-2-enamide] | 119%
16 | N#CC(=Cc1cnn(CCCl)c1)C(=O)NC1CCCCC1 [9-A16, 3-[1-(2-chloroethyl)-1H-pyrazol-4-yl]-2-cyano-N-cyclohexylprop-2-enamide] | 109%
17 | COc1cccc2cc(C=C(C#N)C(=O)Nc3ccc(C)cc3)oc12 [9-A17, 2-cyano-3-(7-methoxy-1-benzofuran-2-yl)-N-(4-methylphenyl)prop-2-enamide] | 89%
18 | COc1ccc(C=C(C#N)C(=O)Nc2ccccc2C(=O)O)cc1O [9-A18, 2-[2-cyano-3-(3-hydroxy-4-methoxyphenyl)prop-2-enamido]benzoic acid] | 104%

Row | SMILES | viability at 48 h, 25 µM
19 | COc1ccc(C=C(C#N)C(=O)Nc2ccc(C)cc2)cc1 [9-A19, 2-cyano-3-(4-methoxyphenyl)-N-(4-methylphenyl)prop-2-enamide] | 103%
20 | N#CC(=Cc1cccc(O)c1)C(=O)Nc1ccccc1C(F)(F)F [9-A20, 2-cyano-3-(3-hydroxyphenyl)-N-[2-(trifluoromethyl)phenyl]prop-2-enamide] | 109%
21 | N#CC(C(=O)N1CCCCC1)=C1N=C(N)c2ccccc21 [9-A21, 2-(3-amino-1H-isoindol-1-ylidene)-3-oxo-3-(piperidin-1-yl)propanenitrile] | 102%
22 | N#CC(=Cc1ccc(C#N)cc1)C(=O)Nc1ccc(F)c(Cl)c1 [9-A22, N-(3-chloro-4-fluorophenyl)-2-cyano-3-(4-cyanophenyl)prop-2-enamide] | 102%
23 | N#CC(=Cc1ccc(N2CCOCC2)cc1)C(=O)Nc1ccccc1F [9-B03, 2-cyano-N-(2-fluorophenyl)-3-[4-(morpholin-4-yl)phenyl]prop-2-enamide] | 89.3%
24 | CCN(CC)C(=O)/C(C#N)=C/c1cc(O)c(O)c([N+](=O)[O-])c1 [9-B04, (2E)-2-cyano-3-(3,4-dihydroxy-5-nitrophenyl)-N,N-diethylprop-2-enamide] | 105%
25 | Cc1c(Cl)cccc1NC(=O)C(C#N)=Cc1cccs1 [9-B05, N-(3-chloro-2-methylphenyl)-2-cyano-3-(thiophen-2-yl)prop-2-enamide] | 108%
26 | N#CC(=Cc1cccc(-c2ccncc2)c1)C(=O)NCc1ccco1 [9-B06, 2-cyano-N-[(furan-2-yl)methyl]-3-[3-(pyridin-4-yl)phenyl]prop-2-enamide] | 68.2%
27 | N#CC(=Cc1c[nH]c2ccccc12)C(=O)Nc1ccc2c(c1)OCCO2 [9-B07, 2-cyano-N-(2,3-dihydro-1,4-benzodioxin-6-yl)-3-(1H-indol-3-yl)prop-2-enamide] | 101%
28 | N#CC(=Cc1ccc(-c2ccccc2)cc1)C(=O)N1CCCC1 [9-B08, 3-{[1,1'-biphenyl]-4-yl}-2-(pyrrolidine-1-carbonyl)prop-2-enenitrile] | 71.2%
29 | C=CCNC(=O)C(C#N)=Cc1cccc(O)c1 [9-B09, 2-cyano-3-(3-hydroxyphenyl)-N-(prop-2-en-1-yl)prop-2-enamide] | 113%
30 | N#CC(=Cc1c[nH]c2ccccc12)C(=O)Nc1ccccn1 [9-B10, 2-cyano-3-(1H-indol-3-yl)-N-(pyridin-2-yl)prop-2-enamide] | 111%
31 | N#CC(=Cc1ccco1)C(=O)NCCc1ccc(F)cc1F [9-B11, 2-cyano-N-[2-(2,4-difluorophenyl)ethyl]-3-(furan-2-yl)prop-2-enamide] | 122%
32 | N#CC(=Cc1csc(COc2ccccc2)n1)C(N)=O [9-B12, 2-cyano-3-[2-(phenoxymethyl)-1,3-thiazol-4-yl]prop-2-enamide] | 116%
33 | CCCCNC(=O)C(C#N)=Cc1ccsc1 [9-B13, N-butyl-2-cyano-3-(thiophen-3-yl)prop-2-enamide] | 102%
34 | CNC(=O)C(C#N)=Cc1ccc(F)cc1 [9-B14, 2-cyano-3-(4-fluorophenyl)-N-methylprop-2-enamide] | 109%
35 | CC(C)c1nc(C=C(C#N)C(=O)NC2CCCCC2)c2ccccn12 [9-B15, 2-cyano-N-cyclohexyl-3-[3-(propan-2-yl)imidazo[1,5-a]pyridin-1-yl]prop-2-enamide] | 103%
36 | CC(C)NC(=O)C(C#N)=Cc1ccc(-c2ccc([N+](=O)[O-])cc2)s1 [9-B16, 2-cyano-3-[5-(4-nitrophenyl)thiophen-2-yl]-N-(propan-2-yl)prop-2-enamide] | 99.6%
